Test results as given in patent US7041812B2, “Labeled nucleoside polyphosphates” (Amersham Biosciences Corp, priority 2001, dated 2006).

Key:
[1] = target: T1, MMLV reverse transcriptase (Moloney murine leukemia virus, UniProt P03355); assay: Rates of incorporation of dTPn-DDAO (n=3 or 4) by reverse transcriptase; assay type: biochemical; settings: 1 μM nucleotide, 100 nM primer annealed to template, shrimp alkaline phosphatase, 23° C., FIG. 2
T1 construct: MMLV reverse transcriptase
Protocol: (§1) Reactions were assembled at room temperature (23° C.) using the deoxynucleotides of Example (1–5). Reactions contained primer template combinations having a single oligonucleotide primer (represented by SEQ ID NO: 1) annealed to an oligonucleotide template corresponding to SEQ ID NO: 2.
(§2) Reaction conditions: A 70 μl reaction containing 50 mM Tris, pH 8.0, 5% glycerol, 5 mM MgCl2, 0.01% tween-20, 0.25 units shrimp alkaline phosphatase, 100 nM primer annealed to template, and 1 μM ddTPn-DDAO was assembled in a quartz fluorescence ultra-microcuvet in a LS-55 Luminescence Spectrometer (Perkin Elmer), operated in time drive mode. Excitation and emission wavelengths are 620 nm and 655 nm respectively. Slit widths were […] for excitation slits, 15 nm for emission slits. The reaction was initiated by the addition of 0.35 μl (11 units) of a cloned DNA polymerase I (genetically engineered to eliminate 3′-5′ exonuclease activity, 5′-3′ exonuclease activity and discrimination against dideoxynucleotides) or MMLV reverse transcriptase, and 0.25 mM MnCl2.

[2] = test system: cloned DNA polymerase I (genetically engineered to eliminate 3′-5′ exonuclease activity, 5′-3′ exonuclease activity and discrimination against …); assay: Rates of incorporation of dTPn-DDAO (n=3 or 4) by DNA polymerase; assay type: biochemical; settings: 1 μM nucleotide, 100 nM primer annealed to template, shrimp alkaline phosphatase, 23° C., FIG. 2
Protocol: as §1, §2

Structure (SMILES): Cc1cn([C@H]2CC(O)[C@@H](COP(=O)(O)OP(=O)(O)OP(=O)(O)OP(=O)(O)Oc3ccc4c(c3)C(C)(C)C3=C(Cl)C(=O)C(Cl)=CC3=N4)O2)c(=O)[nH]c1=O (some centres unmarked) [dT4P-DDAO, δ-9H(1,3-dichloro-9,9-dimethylacridin-2-one-7-yl)-deoxythymidine-5′-tetraphosphate]
- rate of incorporation [1]: significantly higher than that of dT3P-DDAO
- rate of incorporation [2]: significantly higher than that of dT3P-DDAO
